The source of these data is PMC9231011, “Irreversible Antagonists for the Adenosine A2B Receptor” (Molecules, 2022).

For one experiment, the target named is hA2A. Further details: method as in PMID 30835463, PMID 31646479. As to conditions: Figure 1; cited from earlier work.
Another experiment addresses hA2B. Further details: method as in PMID 30835463, PMID 31646479. As to conditions: Figure 1; cited from earlier work.
The target in the next experiment is hA1. Further details: method as in PMID 30835463, PMID 31646479. As to conditions: Figure 1; cited from earlier work.
The next experiment deals with hA3. Further details: method as in PMID 30835463, PMID 31646479. As to conditions: Figure 1; cited from earlier work.
The target in experiment [1] is T1, mutant human A2BAR (K269^7.32L) (Homo sapiens, UniProt P29275, K269L).
T1 construct: expressed in transfected cells; host or cells: FreeStyle CHO-S cells, pcDNA3.1(+), transient
T1 sequence (P29275 1-332 K269L): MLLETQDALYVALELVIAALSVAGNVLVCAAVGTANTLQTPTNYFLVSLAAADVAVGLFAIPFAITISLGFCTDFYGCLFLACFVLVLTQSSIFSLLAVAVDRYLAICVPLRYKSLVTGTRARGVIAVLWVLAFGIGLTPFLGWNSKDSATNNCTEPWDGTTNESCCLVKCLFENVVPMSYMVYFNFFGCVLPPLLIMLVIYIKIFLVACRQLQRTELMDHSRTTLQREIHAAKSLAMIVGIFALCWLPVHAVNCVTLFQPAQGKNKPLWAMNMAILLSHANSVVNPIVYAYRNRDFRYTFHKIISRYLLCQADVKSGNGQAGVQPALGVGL
Nature of the experiment: Homologous competition binding of PSB-603 vs [3H]PSB-603 at mutant. As to conditions: K269^7.32L mutant. As to the method: The human A2AAR, the mutant human A2BAR (K269^7.32L), and the human A3AR were transiently expressed in FreeStyle^TM CHO-S cells using the transfection reagent polyethylenimine (PEI) at a ratio of 1:3 to DNA according to the manufacturer’s guideline. pcDNA3.1(+) was used as the transfection vector containing the cDNA for either the wt ARs or the K269^7.32L mutant A2BAR that was prepared by site-directed mutagenesis with the following primer: forward […], reverse […]. CHO-S cells were grown in FreeStyle^TM CHO Expression Medium supplemented with 8 mM L-glutamine before use and split to 0.5 mio. cells per mL the day before transfection. Twenty-four hours after transfection, cells were spun down by centrifugation for 15 min at 500× g. […]
Binding experiments were performed using 50 mM Tris buffer (pH 7.4) in a total volume of 400 µL for the A1AR, A2AAR, A3AR, and 1000 µL for the A2BAR. […] Non-specific binding was determined in the presence of 10 µM of 2-chloroadenosine, 10 µM of CGS 15943, 10 µM of 8-cyclopently-1,3-dipropylxanthine or 100 µM of (R)-N^6-phenylisopropyadenosine for A1-, A2A-, A2B- and A3ARs, respectively. […] Subsequently, radioactivity was determined using a liquid scintillation counter (Tricarb 2810TR, Perkin Elmer).

The target of a further experiment is T2, A2BAR (Homo sapiens, UniProt P29275).
T2 sequence (P29275 1-332): T1 sequence (P29275 1-332 K269L) with L269K
Further details: purchased Perkin Elmer ES-013-M400UA; method as in PMID 19569717. As to conditions: wt A2BAR; read-out: KD of [3H]PSB-603; cited from earlier work.

Each structure is given as a SMILES string. Where a chain is given by its changes, count along the chain named.

One may read the Ki as a dissociation constant, usually derived from enzyme kinetics or from competition with a known ligand. Usually Kd stands for the equilibrium constant for the complex coming apart.

On to `CCCn1c(=O)[nH]c2nc(-c3ccc(S(=O)(=O)N4CCN(c5ccc(Br)cc5)CC4)cc3)[nH]c2c1=O` [PSB-1901], for which the Ki was greater than 1000 nM at hA2A, 0.0835 nM on hA2B, greater than 1000 nM at hA1 and greater than 1000 nM on hA3.

For the molecule `CCCn1c(=O)[nH]c2nc(-c3ccc(S(=O)(=O)N4CCN(c5ccc(Cl)cc5)CC4)cc3)[nH]c2c1=O` [PSB-603], the Ki was greater than 10000 nM on hA2A, 0.553 nM on hA2B, greater than 10000 nM at hA1 and greater than 10000 nM on hA3. In addition, the “KD of [3H]PSB-603” value in experiment [1] was “did not alter”. Further, the Kd in experiment [1] is 0.292 ± 0.034 nM; on A2BAR, 0.553 ± 0.103 nM.

Regarding `CCn1c(=O)c2c(nc(/C=C/c3ccc(OC)c(OC)c3)n2C)n(CC)c1=O` [Istradefylline, istradefylline], the Ki at hA2A was 26.4 nM; at hA2B, greater than 10000 nM; on hA1, 841 nM; at hA3, 4470 nM.
